Test results as given in ChEMBL document CHEMBL3301361, “Experimental in vitro DMPK and physicochemical data on a set of publicly disclosed compounds”.
≈ marks a conversion by molar mass, not a printed value.

Columns and labels:
[1] = in vitro; settings: human, plasma
[2] = in vitro; settings: mouse, plasma
[3] = physchem; settings: octan-1-ol/water
[4] = in vitro; settings: SD, HW or BN, rat, plasma
[5] = in vitro; settings: Beagle, dog, plasma
[6] = in vitro; settings: human, liver microsomes
[7] = physchem
[8] = physchem; settings: pH 7.4 buffer
[9] = physchem; remark: listed apart in the source
[10] = in vitro; settings: human, hepatocytes
[11] = in vitro; settings: hepatocytes

fraction unbound at 5 h ([1]; PPB) | fraction unbound at 5 h [2] | logD ([3]; pH 7.4, LogD7.4) | Compound | also measured
 | 0.02 |  | CCC#Cc1cncc(-c2ccc3c(c2)C2(N=C(C)C(N)=N2)[C@]2(CC[C@H](OC)CC2)C3)c1 (stereo not given in full) | 
0.0179 | 0.0321 |  | Nc1scc2c(C(=O)NC3CC3)nn(-c3ccc(Cl)cc3)c(=O)c12 | 
 | 0.0428 |  | C/C=C/c1ccc(Oc2nnnn2-c2ccc(C(N)=O)cc2)c(OC)c1 | fraction unbound at 5 h [1]: 0.0268
 | 0.0343 |  | Cc1nn(C)c(C)c1-c1ccc(-c2nc3ccncc3c(O)c2C#N)cc1 | 
 | 0.11 | 2.8 | Nc1scc2c(C(=O)NC3CC3)nn(-c3ccc(F)cc3)c(=O)c12 | 
0.119 | 0.17 |  | CC#Cc1cncc(-c2csc([C@]3(C)CC(=O)N(C)C(N)=N3)c2)c1 | 
 | 0.0043 |  | O=c1c2cc(-c3ccc(Cl)cc3)oc2ccn1-c1ccc2c(cnn2CCN2CCCC2)c1 | 
0.0041 | 0.013 | 1.6 | Cc1cc(-c2ccc(-c3nc4ccncc4c(O)c3C#N)cc2)ccn1 | 
0.0111 | 0.013 |  | COCC#Cc1cccc(C2(c3ccc(OC(F)F)cc3)N=C(N)N3CC(F)(F)CN=C32)c1 (stereo not given) | 
 | 0.001 |  | CCCn1c(=O)c2[nH]c(-c3cnn(Cc4cccc(C(F)(F)F)c4)c3)nc2n(CC)c1=O [GS 6201] | 
0.0024 |  |  | Nc1[nH]ncc1-c1cc(Cl)ccc1Oc1cc(F)c(S(=O)(=O)Nc2cscn2)cc1Cl [PF-05089771] | fraction unbound at 5 h [4]: 0.0055; fraction unbound at 5 h [5]: 0.0048; hepatocyte CLint [10]: 5.62 µL/min/1e6 cells; pKa [7]: 6.2
0.002 | 0.006 |  | CC#Cc1cncc(-c2cccc(C3(c4cc(C)c(OC)c(C)c4)N=C(C)C(N)=N3)c2)c1 (stereo not given) | 
0.119 | 0.0752 |  | Cn1c(-c2cccc(F)c2)nc2c(N)nc(C#CC3(O)CCCC3)nc21 | 
0.0018 |  | 1.59 | Cc1ccc2c(c1)c(-c1ccnc3cc(Cl)ccc13)c(C)n2CC(=O)O | pKa [9]: 2.6; fraction unbound at 5 h [5]: 0.0035; microsomal CLint [6]: 4 µL/min/mg; pKa [7]: 5
 | 0.0021 | 3.15 | COc1cc(-n2nnc3cc(-c4ccc(Cl)cc4)sc3c2=O)ccc1N1CC[C@@H](O)C1 | 

Continued, molecule first:

Compound | fraction unbound at 5 h ([1]; PPB) | fraction unbound at 5 h [2] | logD ([3]; pH 7.4, LogD7.4) | also measured
CCOc1cc2c(c(F)c1OCC)C(=N)N(CC(=O)c1cc(N3CCOCC3)c(OC)c(C(C)(C)C)c1)C2 [ATOPAXAR] | 0.0021 | 0.0025 |  | 
C[C@H](NC(=O)Cc1cc(F)cc(F)c1)C(=O)NC1C(=O)N(C)c2ccccc2-c2ccccc21 (stereo not given in full) | 0.0099 | 0.0171 | 3.6 | 
N#CCOc1ccccc1-c1ccc(-c2nc3ccncc3c(O)c2C#N)cc1 | 0.0011 | 0.0149 |  | 
COc1cc(Nc2nc3c(c(COC4CCCC4)n2)COCC3)ccc1-n1cnc(C)c1 |  | 0.0149 |  | fraction unbound at 5 h [4]: 0.0205
Cc1ccc2c(c1)c(S(=O)(=O)c1ccc(Cl)cc1)c(C)n2CC(=O)O | 0.0052 |  | 0.06 | fraction unbound at 5 h [5]: 0.0167; microsomal CLint [6]: 7 µL/min/mg; pKa [7]: 3.7
COc1cc(Nc2nc3c(c(Cc4ccccc4)n2)CN(CCO)CC3)ccc1-n1cnc(C)c1 | 0.0191 | 0.02 |  | 
N#Cc1c(-c2ccc(-c3ccccc3OC(F)(F)F)cc2)nc2ccncc2c1O |  | 0.0013 | 3.45 | solubility thermodynamic [8]: 3.3 µM (≈ 1.34 µg/mL)
O=S(=O)(Nc1ncns1)c1cc(F)c(Oc2ccc(Cl)cc2-c2ccnn2C2CNC2)cc1F | 0.02 |  |  | pKa [9]: 10.1; fraction unbound at 5 h [4]: 0.0532; fraction unbound at 5 h [5]: 0.0437; pKa [7]: 3.19
CC[C@H](Nc1ncnc2[nH]cnc12)c1nc2cccc(F)c2c(=O)n1-c1ccccc1 [IDELALISIB] |  | 0.19 | 2.72 | 
OC1(c2ccc(Cl)cc2)CCN(Cc2c[nH]c3ccccc23)CC1 |  | 0.0872 |  | logD ([3]; pH 7.4): 2.25; solubility thermodynamic [8]: 562 µM (≈ 192 µg/mL)
CCS(=O)(=O)c1ccc(-c2cc(Cl)ccc2OCC(=O)O)c(Cl)c1 | 0.0268 |  | -0.43 | fraction unbound at 5 h [5]: 0.0082; microsomal CLint [6]: < 3 µL/min/mg; pKa [7]: 3.4
CCCC[C@H](NC[C@@H]1Cc2cccc(c2)CCCCc2cc(cc(N(CCC)S(C)(=O)=O)c2)C(=O)N1)C(=O)NCC(C)C | 0.004 | 0.002 |  | 
CCC(CC)NC(=O)c1c(C)nn(-c2ccccc2)c1NS(=O)(=O)c1ccc(C)cc1 | 0.0049 |  | 1.35 | fraction unbound at 5 h [4]: 0.03; fraction unbound at 5 h [5]: 0.0418; microsomal CLint [6]: 23.6 µL/min/mg; hepatocyte CLint [11]: 13.5 µL/min/1e6 cells; hepatocyte CLint [10]: < 3 µL/min/1e6 cells; pKa [7]: 4.2
CCNc1cc(C(=O)N[C@@H](Cc2ccccc2)[C@H](O)CNCc2cccc(C(F)(F)F)c2)c(F)c(N2CCCCS2(=O)=O)c1 | 0.0119 | 0.016 |  | 
